The results in this text go back to patent US20080227829A1, “Neurogenic compounds” (priority 2007, published 2008).

The subject of assay [1] is mice. The assay can be described thus: Morris water maze (acquisition training and probe trial), long-term injection study. The assay is classed as in vivo. The method, then: A six-week study was conducted in which apigenin was administered by injection to mice at two different doses in conjunction with or without daily voluntary exercise (running). Behavioral testing was administered after 30 days of injections using the Morris water maze and object recognition test. Apigenin was dissolved in [10:90] Tween 80: 0.9% NaCl. All compounds were purchased from commercial sources. Aliquots of Tween 80: 0.9% NaCl solutions were used for testing in the in vivo model. Sixty-four mice (age seven wks) were divided into four test groups (sixteen per group) and received either: Injections were administered intraperitoneally (i.p.) for forty-two days total. In addition to test injections, daily i.p. injections of 5-bromo-2-deoxyuridine (BrdU) [10 mg/ml] were administered for the first eight days at a dose of 50 mg/kg. Within each test group, eight mice were randomly selected to receive running exercise. These thirty-two mice (eight mice per injection group) were transferred daily (on Days 1-40 of the study) from their normal static housing to an automated voluntary running wheel cage for two hours a day. Non-running mice remained in their static cages throughout the study. On Day 31, all mice began acquisition training on the Morris water maze immediately following their i.p. injection. See, e.g., Morris, Developments of a water-maze procedure for studying spatial learning in the rat, J. Neurosci. Methods, 11(1) (1984), hereby incorporated herein by reference. Mice were trained for nine consecutive days, receiving two trials a day using a hidden platform paradigm. The platform was located in the northwest (NW) quadrant of the water maze. To measure the effect of apigenin (with or without exercise) on learning, latency to platform was recorded for each trial. After daily training on the water maze, non-running mice were returned to their normal static housing while running mice were placed into their running wheel cages for two hours. On Day 9 of the water maze training, the mice received a probe trial 4 hours after the last training. During the probe trial the platform was removed and retention of memory of the target NW quadrant was recorded.

The subject of assay [2] is mice. The assay can be described thus: Object recognition, visual paired comparison task (VPC). Format: in vivo. The protocol:
Each mouse receiving either apigenin 25 mg/kg or Tween 80:0.9% NaCl (control) solutions was administered an i.p. injection of either drug or control for 7 days, after which they were trained and tested on visual paired comparison task (VPC) behavioral assay. The paradigm consisted of habituation to the experimental room for two hours prior to the experiment on Days 1 and 2. After habituation on Day 1, mice were given a five minute exposure to the testing chamber, followed by a thirty second exploration of two identical objects (familiarization training). Twenty-four hours after the familiarization training, mice were once again re-habituated to the room and testing chamber for two hours and one minute, respectively. After re-habituation mice were placed back into the testing chamber and allowed to explore a familiar and novel object for five minutes. Object exploration times were measured for both familiar and novel objects on Days 1 and 2. Both objects were identical, but the “novel” object was in a different location.

Assay [3] concerns dentate gyrus. The assay can be described thus: 10-day oral (food) and i.p. study, BrdU/DAB quantification of dividing cells. To be noted: 10 days; i.p. injection (apigenin 25 mg/kg, epicatechin 20 mg/kg) or food 250 ppm and 500 ppm; vs controls. Format: in vivo, mice. The method, then: A 10-day food study was conducted in which the effects of oral administration of apigenin were compared with apigenin effects upon injection. Food pellets containing epicatechin were tested alongside apigenin. Animals were fed food containing apigenin, epicatechin or control pellets in two doses: 250 ppm and 500 ppm. Aliquots of apigenin and epicatechin were dissolved in [10:90] Tween 80: 0.9% NaCl. Aliquots of Tween 80: 0.9% NaCl were used as controls. Forty mice (age seven weeks) were divided into three test injection groups (n=five per group) and five test food groups (n=five per group) and received: Test injections were administered i.p. for ten days total. Test food was distributed on Day 1 and mice were allowed to eat freely for the duration of the ten days. Daily i.p. injections of BrdU [10 mg/ml] were administered to all animals the first eight days of this study at a dose of 50 mg/kg. At the end of ten days, all mice were perfused using 4% paraformaldehyde and their brain tissue was extracted. Brain tissue was sectioned and stained for BrdU/DAB quantification for dividing cells.

The test system of assay [4] is AKT. The assay can be described thus: Western blot of phosphorylated signaling mediators. As to conditions: 5 mM apigenin; by six hours; adult neural progenitor cells starved two hours; normalized to unphosphorylated form. Format: cell-based. The protocol:
(§1) Adult neural progenitor cells were grown in proliferating conditions (N2 containing FGF2) in six-well plates for at least twenty-four hours. Before collecting cell lysates, the media was removed and replaced with DMEM/F12 for two hours (DMEM/F12 is defined media which lacks insulin and FGF2, two factors known to trigger various cell signaling pathways). In this key “starvation” step, the activation of various downstream mediators returned to steady-state levels. Cells were starved for two hours and the time zero data were collected. One of the following was added and the lysates collected at various time-points: (1) N2 only or (−) DMSO (negative control); (2) (+) DMSO (also a negative control); (3) apigenin; or (4) RA+FSK (positive control). Two time-course experiments were then carried out. The first was an early time-course to measure the acute effects of apigenin at zero minutes, ten minutes, thirty minutes, two hours, six hours, and twenty-four hours. The second experiment was a late time-course to measure long-term effects of apigenin at zero, one, two, three, and four days; the results of this experiment are not discussed here. Cell lysates were then loaded and transferred to Western Blots and the membranes hybridized with antibodies against the phosphorylated and unphosphorylated forms of each protein. The data results with the unphosphorylated form of the protein are not discussed here. The data discussed with respect to the phosphorylated protein are representative of at least three independent experiments and are normalized to the unphosphylated forms (internal control).
Background: In western blotting, separated proteins are transferred to a membrane and probed.

In assay [5] the test system is CREB. The assay can be described thus: Western blot of phosphorylated signaling mediators. The assay is classed as cell-based. As to conditions: adult neural progenitor cells; negative controls show the same results. The protocol: as §1
Assay [6] has as its system ERKs. Put plainly: Western blot of phosphorylated signaling mediators. Format: cell-based. As to conditions: adult neural progenitor cells; negative controls show the same results. The protocol:
as §1

Assay [7] deals with GSK3b. Put plainly: Western blot of phosphorylated signaling mediators. Format: cell-based. As to conditions: adult neural progenitor cells; negative controls show the same results. The protocol:
as §1

Assay [8] concerns b-catenin. The assay can be described thus: Western blot of phosphorylated signaling mediators. As to conditions: adult neural progenitor cells; negative controls show the same results. Format: cell-based. The method, then:
as §1

Each structure is given as a SMILES string. Entries after “also recorded” stand apart in the source; their conditions may differ.

As for `O=c1cc(-c2ccc(O)cc2)oc2cc(O)cc(O)c12` [apigenin], the “probe trial: frequency into target quadrant” value was “trend toward significance” in assay [1] (12.5 mg/kg i.p., non-runners, p<0.06); “significant preference for the target quadrant” in assay [1] (12.5 mg/kg i.p., runners, p<0.001); “significant preference for the target quadrant” in assay [1] (25 mg/kg i.p., non-runners, p<0.05); “strong preference for entering the target quadrant more frequently than other quadrants, although this is not statistically significant” in assay [1] (25 mg/kg i.p., runners, p<0.06). Further, the “latency to platform (acquisition phase)” value in assay [1] (12.5 mg/kg i.p., non-runners, vs control) was “No significant differences”; in assay [1] (12.5 mg/kg i.p., runners, vs control runners and control non-runners, p<0.05) it was “significantly shorter latencies”; in assay [1] (25 mg/kg i.p., non-runners, vs control runners, p<0.05), “significantly different from the control runners”; in assay [1] (25 mg/kg i.p., runners, vs control runners and control non-runners, p<0.05) it was “significantly shorter latencies”. Moreover, in assay [1] (12.5 and 25 mg/kg i.p., runners and non-runners), the “probe trial: total duration of time spent in the quadrants” value is given as “no significant differences among the groups”. In assay [1] (apigenin treated mice, runners and non-runners), the “probe trial: frequency in quadrants (FIG. 1 legend)” value is listed as “entered the target quadrant more frequently than all other quadrants”. For the same molecule, the “learning (summary of water maze)” value in assay [1] (with or without exercise) was “increases learning with or without exercise”. The “difference between injection groups during novel testing” value in assay [2] (25 mg/kg i.p. for 7 days vs Tween 80:0.9% NaCl control) was “No significant differences”. For the same molecule, the “preference for the novel object (object exploration time)” value in assay [2] (25 mg/kg i.p. for 7 days, T-test t=0.0008) was “significant preference for the novel object”. Besides, the “number of dividing cells (BrdU+) in the dentate gyrus” value in assay [3] is recorded as “significant increase in the number of dividing cells; also recorded: increased BrdU labeling”. The “phosphorylation of AKT (pAKT)” value in assay [4] is recorded as “increased phosphorylation of AKT”. Besides, the “phosphorylation of CREB” value in assay [5] is on record as “non-specific effects”. Further, in assay [6], the “phosphorylation of ERKs” value is “non-specific effects”. In addition, the “phosphorylation of GSK3b” value in assay [7] is reported as “non-specific effects”. For the same molecule, in assay [8], the phosphorylation of b-catenin result was “non-specific effects”.
